Experimental data: patent US6984394B2, “Plastically deformable implant” (Bausch & Lomb Incorporated, priority 1999, dated 2006)

Experiments:
[1] = Surface tension of surface-active agent; type: physicochemical; conditions: in aqueous solution
Description: According to the present invention, the term fluorine-containing gel is defined as a gel-like preparation which comprises a minimum of one fluorocarbon. In especially useful embodiments of the present invention, the fluorine-containing gel comprises essentially three components, i.e., a fluorocarbon, a fluorine-containing surface-active agent, and water. It is possible for different additives to be added to the fluorocarbon-containing and aqueous components. Certain compositions of surface-active agents, fluorocarbons, and water form gels which are able to completely recover their gel structure after they have been liquefied, for example, by exposure to mechanical pressure or heat. This property of the gels according to the present invention makes it possible for them to be used as a generic implant over a long period of time. If the implant material of such an implant that has been inserted into a bodily orifice were to liquefy, for example, as a result of short-term pressure, the gel structure, due to the reversibility described, would be able to recover when in a state of rest. Thus, the implant according to the present invention has a self-regulating restorative mechanism. This self-regulating restorative mechanism of a polyaphron gel is attributable to the stability of the aphrons that form the gel. After liquefaction, a gel can restore its structure only if its “building blocks,” the aphrons, were not completely destroyed. If a sufficient number of intact aphrons remain after liquefaction, a recovery is possible, and what comes as a surprise is the fact that the aphron structure is transferred to the homogenized regions of the surrounding liquid and that the gel structure is restored in the entire liquid. The stability of the aphrons depends on the intensity of the interaction between water, surface-active agent, and perfluorocarbon, which in turn is determined by the surface properties and the ability of the individual phases to spread on each other's surface. In addition, an important aspect is the intensity of the interactions of the molecules within the films that envelop the aphrons (water/surface-active agent; perfluorocarbon/surface-active agent). Thus, the self-regulating restorative mechanism is activated only if the surface properties of the surface-active agent/water and/or surface-active agent/perfluorocarbon film, on the one hand, and of the internal aphron phase, on the other hand, are properly coordinated, i.e., if the strength of the surface-active agent stabilizes the aphron structure. This can be implemented through the use of fluorine-containing surface-active agents of the general formula RF—Rpol, where RF stands for the linear or branched perfluoroalkyl groups with more than 5 carbon atoms and Rpol stands for a polar hydrocarbon residue which comprises a minimum of one functional group which is selected from CO—NH(R), CO—N(R)2, COO—, COOR, SO3; SO2N(R)2, CH2—O—R, PO2H, PO3H. The molecular weight is preferably >400 g/mol, the surface tension in aqueous solution is <30 mN/m and preferably <20 mN/m. The interfacial tension in aqueous solution with respect to the nonpolar component is <25 mN/m, preferably <10 mN/m, and the concentration is <3%, preferably <0.1%. With nonfluorinated surface-active agents, this can be achieved by means of a strong cohesive effect with an HLB value greater than 25 (HLB=hydrophilic lipophilic balance according to Griffin in J. Soc. Cosmet. Chem. 1 (1949), p. 311).

[2] = Interfacial tension with respect to the nonpolar component; type: physicochemical; conditions: surface-active agent, in aqueous solution
Description: According to the present invention, the term fluorine-containing gel is defined as a gel-like preparation which comprises a minimum of one fluorocarbon. In especially useful embodiments of the present invention, the fluorine-containing gel comprises essentially three components, i.e., a fluorocarbon, a fluorine-containing surface-active agent, and water. It is possible for different additives to be added to the fluorocarbon-containing and aqueous components. Certain compositions of surface-active agents, fluorocarbons, and water form gels which are able to completely recover their gel structure after they have been liquefied, for example, by exposure to mechanical pressure or heat. This property of the gels according to the present invention makes it possible for them to be used as a generic implant over a long period of time. If the implant material of such an implant that has been inserted into a bodily orifice were to liquefy, for example, as a result of short-term pressure, the gel structure, due to the reversibility described, would be able to recover when in a state of rest. Thus, the implant according to the present invention has a self-regulating restorative mechanism. This self-regulating restorative mechanism of a polyaphron gel is attributable to the stability of the aphrons that form the gel. After liquefaction, a gel can restore its structure only if its “building blocks,” the aphrons, were not completely destroyed. If a sufficient number of intact aphrons remain after liquefaction, a recovery is possible, and what comes as a surprise is the fact that the aphron structure is transferred to the homogenized regions of the surrounding liquid and that the gel structure is restored in the entire liquid. The stability of the aphrons depends on the intensity of the interaction between water, surface-active agent, and perfluorocarbon, which in turn is determined by the surface properties and the ability of the individual phases to spread on each other's surface. […]

| σG = interfacial tension with respect to the nonpolar component [2] [mNm] | Compound | σO = surface tension [1] |
| --- | --- | --- |
| – | CC[N+](CC)(CC)CC.O=S(=O)([O-])C(F)(F)C(F)(F)C(F)(F)C(F)(F)C(F)(F)C(F)(F)C(F)(F)C(F)(F)F [Example B248, Tetraethyl animonium salt of perfluorooctanesulfonic acid] | σO < 20 mNm |
| – | C[N+](C)(C)C.O=C([O-])C(F)(F)C(F)(F)C(F)(F)C(F)(F)C(F)(F)C(F)(F)C(F)(F)F [E 749, Tetramethyl ammonium salt of perfluorooctanoic acid] | σO < 20 mNm |
| – | CN(C[C@H](O)[C@@H](O)[C@H](O)[C@H](O)CO)C(=O)C(F)(F)C(F)(F)C(F)(F)C(F)(F)C(F)(F)C(F)(F)C(F)(F)F [Example T14, Perfluorooctanoic acid N-methyl-D-glucamide] | σO < 20 mNm |
| – | O=C(N(CCO)C[C@H](O)[C@@H](O)[C@H](O)[C@H](O)CO)C(F)(F)C(F)(F)C(F)(F)C(F)(F)C(F)(F)C(F)(F)C(F)(F)C(F)(F)C(F)(F)F [Example T21, Perfluorodecanoic acid N-(2-hydroxyethyl)-D-glucamide] | σO < 20 mNm |
| 19 | Perfluoroalkyl ethanol oxethylate [Fluowet OTN] | 18 mNm |
| – | Perfluorooctanoic acid tetraethyl piperazinium salt [HO224] | σO = 16 mNm |
| – | O=C(N(CCO)CCO)C(F)(F)C(F)(F)C(F)(F)C(F)(F)C(F)(F)C(F)(F)C(F)(F)F [HO31, Perfluorooctanoic acid diethanolamide] | σO < 20 mNm |
| – | O=C(N(CCO)CC(O)C(O)C(O)C(O)CO)C(F)(F)C(F)(F)C(F)(F)C(F)(F)C(F)(F)C(F)(F)C(F)(F)F [Example T16, Perfluorooctanoic acid N-(2-hydroxyethyl)-D-glucamide] | σO < 20 mNm |
| 12 | Fluorinated amine oxide [Fluowet OX] | 22 mNm |
| 10 | Perfluoroalkyl ethanol oxethylate [Fluowet OTL] | 19 mNm |
